Legend:
[1] = Liquid; for mass density: 298.15 K, 101.33 kPa, Vibrating tube method; for Normal boiling temperature: Ebulliometric method (Recirculating still)
[2] = refractive index (Na D-line) (dimensionless); conditions: 298.15 K; 101.33 kPa; Liquid; Standard Abbe refractometry

C1=CCCCC1 [cyclohexene]
Conditions | Normal boiling temperature [°C] | mass density [kg/m3] | refractive index
[1] | 82.82 | 805.69 | –
[2] | – | – | 1.4444

C1CCCCC1 [cyclohexane]
Conditions | Normal boiling temperature [°C] | mass density [kg/m3] | refractive index
[1] | 80.58 | 773.82 | –
[2] | – | – | 1.4238

CC(=O)CC(C)C [4-methylpentan-2-one]
Conditions | mass density [kg/m3] | refractive index
[1] | 796.03 | –
[2] | – | 1.3942

[1]
Conditions | vapor or sublimation pressure [kPa]
343.76 K | 22.45
346.51 K | 24.97
349.09 K | 27.43
351.46 K | 29.98
353.65 K | 32.46
355.76 K | 35.07
357.68 K | 37.44
359.54 K | 39.99
361.33 K | 42.54
362.97 K | 44.96
364.61 K | 47.52
366.15 K | 50.02
367.55 K | 52.44
369.05 K | 55.08
370.35 K | 57.48
371.66 K | 59.96
372.96 K | 62.51
374.22 K | 65.08
375.35 K | 67.44
376.56 K | 70.07
377.63 K | 72.41
378.73 K | 74.98
379.78 K | 77.41
380.83 K | 79.93
381.84 K | 82.44
382.84 K | 84.96
383.8 K | 87.44
384.71 K | 89.85
385.67 K | 92.47
386.6 K | 95.07
387.45 K | 97.46
387.82 K | 98.52
388.33 K | 99.98
388.78 K | 101.33
